Test results: ChEMBL document CHEMBL1938367, “Novel potent 2,5-pyrrolidinedione peptidomimetics as aminopeptidase N inhibitors. Design, synthesis and activity evaluation” (Bioorg Med Chem Lett, 2012)

What was measured:
H22 = assay: Antimetastatic activity against […] H22 cells xenografted in mouse assessed as inhibition of metastasized nodes on lung surface dosed orally 6 days/week for 2 weeks; type: functional
Aminopeptidase N = target: T1, Aminopeptidase N (Sus scrofa, UniProt P15145); assay: Inhibition of porcine kidney microsomal aminopeptidase N using L-Leu-p-nitroanilide as substrate pre-incubated for 30 mins prior substrate addition by UV-VIS spectrophotometry
T1 sequence (P15145 whole entry): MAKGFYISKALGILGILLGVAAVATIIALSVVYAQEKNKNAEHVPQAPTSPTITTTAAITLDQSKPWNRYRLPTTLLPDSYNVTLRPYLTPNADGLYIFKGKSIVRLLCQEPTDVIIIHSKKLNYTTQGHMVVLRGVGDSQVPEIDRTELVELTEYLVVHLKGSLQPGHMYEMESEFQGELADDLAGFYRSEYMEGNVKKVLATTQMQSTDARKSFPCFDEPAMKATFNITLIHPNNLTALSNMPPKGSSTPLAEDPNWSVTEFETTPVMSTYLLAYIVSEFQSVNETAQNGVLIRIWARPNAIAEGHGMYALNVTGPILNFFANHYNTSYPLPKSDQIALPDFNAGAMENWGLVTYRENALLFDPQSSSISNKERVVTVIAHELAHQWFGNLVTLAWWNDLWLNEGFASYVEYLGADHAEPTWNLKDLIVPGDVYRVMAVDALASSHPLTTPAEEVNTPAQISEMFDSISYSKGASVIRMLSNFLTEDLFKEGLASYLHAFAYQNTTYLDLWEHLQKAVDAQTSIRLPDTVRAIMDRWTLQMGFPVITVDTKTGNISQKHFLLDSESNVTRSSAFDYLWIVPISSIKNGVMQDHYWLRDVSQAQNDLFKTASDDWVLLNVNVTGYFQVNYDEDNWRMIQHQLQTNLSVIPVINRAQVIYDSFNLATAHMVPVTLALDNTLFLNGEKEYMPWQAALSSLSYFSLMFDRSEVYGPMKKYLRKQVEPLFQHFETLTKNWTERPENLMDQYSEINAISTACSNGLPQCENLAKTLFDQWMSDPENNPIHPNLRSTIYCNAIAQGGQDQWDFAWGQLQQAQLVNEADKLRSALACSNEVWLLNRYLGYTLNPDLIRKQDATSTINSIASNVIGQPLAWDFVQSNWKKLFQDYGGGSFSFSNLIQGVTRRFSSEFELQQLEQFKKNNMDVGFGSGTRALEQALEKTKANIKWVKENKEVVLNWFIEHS

[1] = target: T2, Aminopeptidase N (Sus scrofa) (UniProt P15145); assay: Ratio of bestatin IC50 to compound IC50 for porcine kidney microsomal aminopeptidase N
T2 sequence (whole entry): T1 sequence (P15145 whole entry)

HL-60 = assay: Antiproliferative activity against human HL60 cells after 48 hrs by MTT assay; type: functional, cell-based; conditions: HL-60, 48 h

Compound	IC50 (Aminopeptidase N) [nM]	also measured
CC(C)C[C@H](NC(=O)[C@@H](O)[C@H](N)Cc1ccccc1)C(=O)O [UBENIMEX]	–	inhibition (INH) (H22): 45.37%
NCCCC[C@H](N)C(=O)N[C@H]1CC(=O)N(CC(=O)NO)C1=O	1000	–
N[C@@H](Cc1ccc(O)cc1)C(=O)N[C@H]1CC(=O)N(CC(=O)NO)C1=O	1000	–
CC(C)C[C@H](N)C(=O)N[C@H]1CC(=O)N(CC(=O)NO)C1=O	1000	–
CC(C)[C@H](N)C(=O)N[C@H]1CC(=O)N(CC(=O)NO)C1=O	1000	–
C[C@H](N)C(=O)N[C@H]1CC(=O)N(CC(=O)NO)C1=O	1000	–
Cl.N[C@@H](Cc1ccccc1)C(=O)N[C@H]1CC(=O)N(CC(=O)NO)C1=O	1000	Ratio IC50 [1]: 2.4; IC50 (HL-60): 149000 nM; inhibition (INH) (H22): 54.21%
CC[C@@H](C)[C@H](N)C(=O)N[C@H]1CC(=O)N(CC(=O)NO)C1=O	1000	–
NCC(=O)N[C@H]1CC(=O)N(CC(=O)NO)C1=O	1000	–
O=C(CN1C(=O)C[C@H](NC(=O)[C@@H]2CCCN2)C1=O)NO	1000	–
CC(C)C[C@H](NC(=O)[C@@H](O)[C@H](N)Cc1ccccc1)C(=O)N1CCC[C@H]1C(=O)N1CCC[C@H]1C(=O)O	–	Ratio IC50 [1]: 50
